# Measurements as given in US20140121236A1, “Compositions and Methods for Treating Myotonic Dystrophy Type 1” (UNIVERSITY OF SOUTHERN CALIFORNIA, priority 2012, published 2014).
# Columns and labels:
# [1] = tested on: CUG-RNA foci in DM1 myoblasts; assay: FISH analysis of nuclear CUG-RNA foci in DM1 myoblasts; format: cell-based, human; conditions: 4 days, FISH
# Method: DM1 myoblasts were then treated with 10 μM of either RCN-001 or the vehicle (DMSO) for 4 days and then examined by FISH using a Cy3 (CAG)10 probe.
# Normal myoblasts were purchased from Lonza, Inc. DM1 myoblasts were a gift from Dr. Charles Thornton. Normal and DM1 myoblasts were maintained in SkGM Medium (Lonza, Inc.) containing 10% Fetal Bovine Serum and 1% Penicillin-Streptomycin, 5% CO2 at 37° C. Human Embryonic Kidney 293 Cells (293HEK) were maintained in Dulbecco's Modification of Eagle's Medium (DMEM) from Cellgro supplemented with 10% Fetal Bovine Serum and 1% Penicillin-Streptomycin, 5% CO2 at 37° C.
# CUG-RNA foci were detected by performing FISH on untreated DM1 myoblasts and DM1 myoblasts following treatment. For FISH analysis, DM1 myoblasts were plated on a 24-well clear bottom polystyrene plate with circular glass coverslips followed by treatment. Prior to FISH analysis, cells were fixed using 4% paraformaldehyde in 1×PBS for 20 min at room temperature. FISH analysis was performed using a Cy3 conjugated (CAG)10 oligonucleotide probe (Integrated DNA Technologies, Inc.) as described by Taneja et al, 1995 and Dansithong et al, 2005. CUG-RNA foci were observed as a red signal using fluorescence microscopy. Immunofluorescence was performed as described by Dansithong et al, 2008. Endogenous SHARP was detected using SHARP polyclonal antibodies from Bethyl at a dilution of 1:1000. The secondary antibodies conjugated with FITC (Invitrogen) were used at a 1:2000 dilution. Chloride channel 1 (Clcn1 a.k.a. CIC-1) was detected using CIC-1 polyclonal antibodies from Santa Cruz. The secondary antibodies conjugated with Alexa Flour 488 (Invitrogen) were used at a 1:2000 dilution. FISH analysis in mouse muscle section was carried out as described in Mancodi et al, 2000 (9).
# DM1 myoblasts [2] = assay: Viability of DM1 myoblasts by counting surviving cells; format: cell-based, human; conditions: 4 days, surviving cells vs vehicle control
# DM1 myoblasts [3] = assay: Toxicity by shape and size of the nuclei of DM1 myoblasts; format: cell-based, human; design: key: −: Nontoxic; +: 10% alterations in nuclei shape and size; ++: 20-30% alterations in nuclei shape and size; +++: 40-50% alterations in nuclei shape and size; ++++: 60% alterations in nuclei shape and size; +++++: very sick, almost no surviving cells; conditions: 4 days
# [4] = tested on: MBNL1 and MBNL2 RNA splicing in DM1 myoblasts; assay: Splicing assay (RT-PCR) for RNAs from DM1 myoblasts; format: cell-based, human; conditions: 50 μM, 17 hours, RT-PCR
# Method: A. Total RNA was isolated from normal (SKMC) myoblasts, untreated DM1 myoblasts and DM1 myoblasts treated with 50 μM RCN-001 or 50 μM Pentamidine for 17 hours and subjected to RT-PCR analysis using the indicated primers sets for MBNL1 and MBNL2 RNAs. GAPDH RNA was amplified in parallel as an internal control. The results of one of three experiments are shown. B. The relative levels of exon inclusion was measured by densitometry and tabulated as mean % exon inclusion +/− standard deviation.
# Treatment of DM1 myoblasts with RCN-001 is also sufficient to rescue abnormal RNA splicing. Two RNAs were selected that show abnormal splicing in DM1 myoblasts: MBNL1 and MBNL2. DM1 myoblast were treated with 50 μM RCN-001 for 17 hours after which RNA was isolated and splice variants were analyzed as previously described (20-22).
# Splicing assays for RNAs isolated from human myoblasts. DM1 patient myoblasts was treated with 50 μM of RCN-001 or Pentamidine for 17 h as described by Warf et al, 2009. Total RNA was isolated using the RNAeasy mini kit (Qiagen Inc., USA) following manufacture's protocol. cDNA was synthesized using 5 μg of total RNA using First-Strand cDNA synthesis kit (GE Healthcare). PCR amplification was carried out using 150 ng of cDNA for 35 cycles for each target RNA. The primers used for PCR amplification are as follows—
# The relative band intensities were measured using densitometry analyses and the percent of exon inclusion was calculated as [exon inclusion/(exon inclusion+exon exclusion)]×100.
# DM1 splicing defects = conditions: literature reference 16 (Warf et al.); cited from earlier work
structure (smiles),measurement,setting,value
"CCCCCCc1cc2cc(C(=O)Nc3cccc(Cl)c3Cl)c(=N)oc2cc1O [RCN-016, N-(2,3-dichlorophenyl)-6-hexyl-7-hydroxy-2-imino-2H-chromene-3-carboxamide]",# of Foci (percentage) 0-1: Percentage of cells with no or 1 nuclear foci,"[1]; Table 2, 10 μM",12 percentage
same,# of Foci (percentage) >2: Percentage of cells with 2 or greater nuclear foci,"[1]; Table 2, 10 μM",88 percentage
same,Toxicity: Viable,"DM1 myoblasts [2]; Table 2, 10 μM",+++ (50-60% cell survival)
same,Toxicity: Toxic,"DM1 myoblasts [3]; Table 2, 10 μM",++ (20-30% alterations in nuclei shape and size)
"N=C(N)c1ccc(OCCCCCOc2ccc(C(=N)N)cc2)cc1 [pentamidine, reference compound]",rescue of abnormal splicing of MBNL1 and MBNL2,[4],did not perform as well RCN-001
same,rescue of DM1 splicing defects shown by others,DM1 splicing defects,partially rescue DM1 splicing defects
"CCN(CC)c1ccc2cc(-c3nnc(-c4cc5ccccc5cc4O)o3)c(=O)oc2c1 [RCN-009, 7-(diethylamino)-3-(5-(3-hydroxynaphthalen-2-yl)-1,3,4-oxadiazol-2-yl)-2H-chromen-2-one]",# of Foci (percentage) 0-1: Percentage of cells with no or 1 nuclear foci,"[1]; Table 3, 10 μM",11 percentage
same,# of Foci (percentage) >2: Percentage of cells with 2 or greater nuclear foci,"[1]; Table 3, 10 μM",89 percentage
same,Toxicity: Viable,"DM1 myoblasts [2]; Table 3, 10 μM",++ (30-40% cell survival)
same,Toxicity: Toxic,"DM1 myoblasts [3]; Table 3, 10 μM",+++ (40-50% alterations in nuclei shape and size)
"CCc1cc2c(CN3CCN(S(=O)(=O)Cc4ccccc4)CC3)cc(=O)oc2cc1O [RCN-020, 4-((4-(benzylsulfonyl)piperazin-1-yl)methyl)-6-ethyl-7-hydroxy-2H-chromen-2-one]",# of Foci (percentage) 0-1: Percentage of cells with no or 1 nuclear foci,"[1]; Table 3, 10 μM",15 percentage
same,# of Foci (percentage) >2: Percentage of cells with 2 or greater nuclear foci,"[1]; Table 3, 10 μM",85 percentage
same,# of Foci (percentage) 0-1: Percentage of cells with no or 1 nuclear foci,"[1]; Table 4, 10 μM",15 percentage
same,# of Foci (percentage) >2: Percentage of cells with 2 or greater nuclear foci,"[1]; Table 4, 10 μM",85 percentage
same,Toxicity: Viable,"DM1 myoblasts [2]; Table 3, 10 μM",+++++ (90-100% cell survival)
same,Toxicity: Viable,"DM1 myoblasts [2]; Table 4, 10 μM",+++++ (90-100% cell survival)
same,Toxicity: Toxic,"DM1 myoblasts [3]; Table 3, 10 μM",−
same,Toxicity: Toxic,"DM1 myoblasts [3]; Table 4, 10 μM",−
"O=c1oc2ccccc2cc1-c1nnc(-c2cccc(Br)c2)o1 [RCN-008, 3-(5-(3-bromophenyl)-1,3,4-oxadiazol-2-yl)-2H-chromen-2-one]",# of Foci (percentage) 0-1: Percentage of cells with no or 1 nuclear foci,"[1]; Table 3, 10 μM",27 percentage
same,# of Foci (percentage) >2: Percentage of cells with 2 or greater nuclear foci,"[1]; Table 3, 10 μM",23 percentage
same,Toxicity: Viable,"DM1 myoblasts [2]; Table 3, 10 μM",+++ (50-60% cell survival)
same,Toxicity: Toxic,"DM1 myoblasts [3]; Table 3, 10 μM",+++ (40-50% alterations in nuclei shape and size)
"CCCCCCc1cc2cc(C(N)=O)/c(=N/c3ccccc3OC)oc2cc1O [RCN-019, (Z)-6-hexyl-7-hydroxy-2-((2-methoxyphenyl)imino)-2H-chromene-3-carboxamide]",# of Foci (percentage) 0-1: Percentage of cells with no or 1 nuclear foci,"[1]; Table 2, 10 μM",14 percentage
same,# of Foci (percentage) >2: Percentage of cells with 2 or greater nuclear foci,"[1]; Table 2, 10 μM",86 percentage
same,Toxicity: Viable,"DM1 myoblasts [2]; Table 2, 10 μM",+++ (50-60% cell survival)
same,Toxicity: Toxic,"DM1 myoblasts [3]; Table 2, 10 μM",++ (20-30% alterations in nuclei shape and size)
CCCCCCc1cc2cc(-c3csc(-c4nc(-c5cc6cc(CCCCCC)c(O)cc6oc5=O)cs4)n3)c(=O)oc2cc1O [RCN-012],# of Foci (percentage) 0-1: Percentage of cells with no or 1 nuclear foci,"[1]; Table 4, 10 μM",14 percentage
same,# of Foci (percentage) >2: Percentage of cells with 2 or greater nuclear foci,"[1]; Table 4, 10 μM",86 percentage
same,Toxicity: Viable,"DM1 myoblasts [2]; Table 4, 10 μM",+++++ (90-100% cell survival)
same,Toxicity: Toxic,"DM1 myoblasts [3]; Table 4, 10 μM",−
CCCCCCc1cc2cc(-c3nnc(-c4ccc([N+](=O)[O-])cc4)o3)c(=O)oc2cc1O [RCN--005],# of Foci (percentage) 0-1: Percentage of cells with no or 1 nuclear foci,"[1]; Table 1, 10 μM",14 percentage
same,# of Foci (percentage) >2: Percentage of cells with 2 or greater nuclear foci,"[1]; Table 1, 10 μM",86 percentage
same,Toxicity: Viable,"DM1 myoblasts [2]; Table 1, 10 μM",+ (10-20% cell survival)
same,Toxicity: Toxic,"DM1 myoblasts [3]; Table 1, 10 μM",++++ (60% alterations in nuclei shape and size)
"CCCCCCc1cc2cc(-c3nnc(-c4cccc(F)c4)o3)c(=O)oc2cc1O [RCN-004, 3-(5-(3-fluorophenyl)-1,3,4-oxadiazol-2-yl)-6-hexyl-7-hydroxy-2H-chromen-2-one]",# of Foci (percentage) 0-1: Percentage of cells with no or 1 nuclear foci,"[1]; Table 1, 10 μM",29 percentage
same,# of Foci (percentage) >2: Percentage of cells with 2 or greater nuclear foci,"[1]; Table 1, 10 μM",71 percentage
same,Toxicity: Viable,"DM1 myoblasts [2]; Table 1, 10 μM",++ (30-40% cell survival)
same,Toxicity: Toxic,"DM1 myoblasts [3]; Table 1, 10 μM",+++ (40-50% alterations in nuclei shape and size)
"CCCCCCc1cc2cc(-c3cn4ccc(C)cc4n3)c(=O)oc2cc1O [RCN-013, 6-hexyl-7-hydroxy-3-(7-methylimidazo[1,2-a]pyridine-2-yl)-2H-chromen-2-one]",# of Foci (percentage) 0-1: Percentage of cells with no or 1 nuclear foci,"[1]; Table 4, 10 μM",13 percentage
same,# of Foci (percentage) >2: Percentage of cells with 2 or greater nuclear foci,"[1]; Table 4, 10 μM",87 percentage
same,Toxicity: Viable,"DM1 myoblasts [2]; Table 4, 10 μM",+++ (50-60% cell survival)
same,Toxicity: Toxic,"DM1 myoblasts [3]; Table 4, 10 μM",+++ (40-50% alterations in nuclei shape and size)
"CCCCCCc1cc2cc(-c3cn4ccccc4n3)c(=O)oc2cc1O [RCN-011, 6-hexyl-7-hydroxy-3-(imidazo[1,2-a]pyridine-2-yl)-2H-chromen-2-one]",# of Foci (percentage) 0-1: Percentage of cells with no or 1 nuclear foci,"[1]; Table 4, 10 μM",17 percentage
same,# of Foci (percentage) >2: Percentage of cells with 2 or greater nuclear foci,"[1]; Table 4, 10 μM",83 percentage
same,Toxicity: Viable,"DM1 myoblasts [2]; Table 4, 10 μM",+++++ (90-100% cell survival)
same,Toxicity: Toxic,"DM1 myoblasts [3]; Table 4, 10 μM",−
"CCCCCCc1cc2cc(C(=O)Nc3ccc(Br)cc3)c(=O)oc2cc1O [RCN-015, N-(4-bromophenyl)-6-hexyl-7-hydroxy-2-oxo-2H-chromene-3-carboxamide]",# of Foci (percentage) 0-1: Percentage of cells with no or 1 nuclear foci,"[1]; Table 2, 10 μM",29 percentage
same,# of Foci (percentage) >2: Percentage of cells with 2 or greater nuclear foci,"[1]; Table 2, 10 μM",71 percentage
same,Toxicity: Viable,"DM1 myoblasts [2]; Table 2, 10 μM",+++ (50-60% cell survival)
same,Toxicity: Toxic,"DM1 myoblasts [3]; Table 2, 10 μM",+++ (40-50% alterations in nuclei shape and size)
"CCCCCCc1cc2cc(C(=O)Nc3cccc(OC)c3)c(=O)oc2cc1O [RCN-014, 6-hexyl-7-hydroxy-N-(3-methoxyphenyl)-2-oxo-2H-chromene-3-carboxamide]",# of Foci (percentage) 0-1: Percentage of cells with no or 1 nuclear foci,"[1]; Table 1, 10 μM",24 percentage
same,# of Foci (percentage) >2: Percentage of cells with 2 or greater nuclear foci,"[1]; Table 1, 10 μM",76 percentage
same,# of Foci (percentage) 0-1: Percentage of cells with no or 1 nuclear foci,"[1]; Table 2, 10 μM",24 percentage
same,# of Foci (percentage) >2: Percentage of cells with 2 or greater nuclear foci,"[1]; Table 2, 10 μM",76 percentage
same,Toxicity: Viable,"DM1 myoblasts [2]; Table 1, 10 μM",++++ (70-80% cell survival)
same,Toxicity: Viable,"DM1 myoblasts [2]; Table 2, 10 μM",++++ (70-80% cell survival)
same,Toxicity: Toxic,"DM1 myoblasts [3]; Table 1, 10 μM",+ (10% alterations in nuclei shape and size)
same,Toxicity: Toxic,"DM1 myoblasts [3]; Table 2, 10 μM",+ (10% alterations in nuclei shape and size)
"CCCCCCc1cc2cc(C(=O)Nc3ccc(Cl)c(Cl)c3)c(=O)oc2cc1O [RCN-017, N-(3,4-dichlorophenyl)-6-hexyl-7-hydroxy-2-oxo-2H-chromene-3-carboxamide]",Toxicity: Viable,"DM1 myoblasts [2]; Table 2, 10 μM",− (less than 10% cell survival)
same,Toxicity: Toxic,"DM1 myoblasts [3]; Table 2, 10 μM",+++++
"CCCCCCc1cc2cc(C(=O)Nc3cccc(Br)c3)c(=O)oc2cc1O [RCN-018, N-(3-bromophenyl)-6-hexyl-7-hydroxy-2-oxo-2H-chromene-3-carboxamide]",Toxicity: Viable,"DM1 myoblasts [2]; Table 2, 10 μM",− (less than 10% cell survival)
same,Toxicity: Toxic,"DM1 myoblasts [3]; Table 2, 10 μM",+++++
"CCN(CC)c1ccc2cc(-c3nnc(-c4ccc(Cl)cc4)o3)c(=O)oc2c1 [RCN-007, 3-(5-(4-chlorophenyl)-1,3,4-oxadiazol-2-yl)-7-(diethylamino)-2H-chromen-2-one]",# of Foci (percentage) 0-1: Percentage of cells with no or 1 nuclear foci,"[1]; Table 1, 10 μM",17 percentage
same,# of Foci (percentage) >2: Percentage of cells with 2 or greater nuclear foci,"[1]; Table 1, 10 μM",83 percentage
same,Toxicity: Viable,"DM1 myoblasts [2]; Table 1, 10 μM",+++ (50-60% cell survival)
same,Toxicity: Toxic,"DM1 myoblasts [3]; Table 1, 10 μM",+++ (40-50% alterations in nuclei shape and size)
